Test results from PubChem BioAssay AID651850 (Broad Institute, 2012).
The source made the active and inactive calls. No rule for the calls is given here.

tested on: not listed separately; assay: M. tuberculosis log-phase growth inhibition, dose response, dry powder samples (AID 651850); settings: M. tuberculosis log-phase growth, CFU enumeration

SMILES | outcome
Fc1ccc(Cn2cc(CSc3nnc(-c4ccc(Cl)cc4)o3)nn2)cc1 | inactive
Fc1ccc(-c2nnc(SCc3cn(-c4ccccc4)nn3)o2)cc1 | inactive
c1ccc(Cn2cc(CSc3nnc(-c4ccccc4)o3)nn2)cc1 | inactive
Fc1ccc(Cn2cc(CSc3nnc(C4CCC4)o3)nn2)cc1 | inactive
c1ccc(Cn2cc(CSc3nnc(C4CCC4)o3)nn2)cc1 | inactive
Clc1ccc(-c2nnc(SCc3cn(Cc4ccccc4)nn3)o2)cc1 | inactive
Fc1ccc(Cn2cc(CSc3nnc(C4CCCC4)o3)nn2)cc1 | inactive
Fc1ccc(Cn2cc(CSc3nnc(-c4ccc(F)cc4)o3)nn2)cc1 | inactive
Clc1ccc(-c2nnc(SCc3cn(-c4ccccc4)nn3)o2)cc1 | inactive

tested on: M. tuberculosis log-phase growth, CFU enumeration; assay: as above; settings: not given

SMILES | IC90
Fc1ccc(-c2nnc(SCc3ccccn3)o2)cc1 | 16 µM
c1ccc(-c2nnc(SCCN3CCN(c4ccccc4)CC3)o2)cc1 | 62 µM
Fc1ccc(-c2nnc(SCc3cn(Cc4ccccc4)nn3)o2)cc1 | 62 µM
COc1cccc(-c2nnc(SCc3ccccn3)o2)c1 | 62 µM
O=S(Cc1cn(Cc2ccccc2)nn1)c1nnc(-c2ccc(Cl)cc2)o1 (stereo not drawn) | 62 µM
COc1ccc(CSc2nnc(-c3ccc(Cl)cc3)o2)nc1 | 16 µM
Clc1ccc(-c2nnc(SCc3cn(Cc4ccccc4)nn3)o2)cc1 | 125 µM
c1ccc(CSc2nnc(C3CCCC3)o2)cc1 | 250 µM
c1ccc(CSc2nnc(-c3ccccc3)o2)cc1 | 62 µM
Brc1ccc(-c2nnc(SCc3ccccn3)o2)cc1 | 62 µM
c1ccc(-n2cc(CSc3nnc(C4CCCC4)o3)nn2)cc1 | 62 µM
Brc1cccc(-c2nnc(SCc3ccccn3)o2)c1 | 62 µM
c1ccc(Cn2cc(CSc3nnc(C4CCCC4)o3)nn2)cc1 | 62 µM
c1ccc(-c2nnc(SCc3cscn3)o2)cc1 | 62 µM
Fc1cccc(-c2nnc(SCc3ccccn3)o2)c1 | 31 µM
c1ccc(-c2nnc(SCc3ccccn3)o2)cc1 | < 31 µM
c1ccc(-n2cc(CSc3nnc(C4CCC4)o3)nn2)cc1 | 62 µM
O=S(Cc1ccccc1)c1nnc(-c2ccccc2)o1 (stereo not drawn) | < 31 µM
CC(C)c1nnc(SCc2ccccc2)o1 | 125 µM
